Data on 28 compounds can be found in patent US9512111B2, “N-sulfonylated tetrahydroquinolines and related bicyclic compounds for inhibition of RORγ activity and the treatment of disease” (Lycera Corporation, priority 2010, dated 2016).

Test [1] has as its target T1, RORγt (Homo sapiens, UniProt P51449).
T1 construct: The resulting GAL4-RORγt-LBD fusion construct was placed under the control of a constitutive cytomegalovirus (CMV) promoter; expressed in transfected cells; host or cells: HEK293
T1 sequence (P51449 269-508 limits assumed): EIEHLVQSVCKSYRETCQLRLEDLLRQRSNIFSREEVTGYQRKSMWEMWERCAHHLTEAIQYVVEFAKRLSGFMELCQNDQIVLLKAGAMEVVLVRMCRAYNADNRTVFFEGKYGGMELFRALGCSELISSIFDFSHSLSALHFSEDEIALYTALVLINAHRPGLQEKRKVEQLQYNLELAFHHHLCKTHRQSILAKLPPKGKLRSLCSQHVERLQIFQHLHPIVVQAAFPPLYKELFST
Description: RORγ Reporter Assay (GAL4-UAS luciferase reporter in HEK293 cells). Format: cell-based. The conditions noted are these: benzoxazines, Table 9; HEK cells.

In test [2] the target is T2, RORγ-LBD (Homo sapiens, UniProt P51449).
T2 construct: HIS-tagged RORγ-LBD was recombinantly expressed in SF9 cells; made in house; host or cells: SF9 cells (baculovirus); unpurified lysate
T2 sequence (P51449 269-508 limits assumed): T1 sequence (P51449 269-508 limits assumed)
Briefly: RORγ-Ligand Binding Domain TR-FRET Assay. Type of test: biochemical. The conditions noted are these: benzoxazines, Table 9. Put shortly:
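IC50 derived from the 665 nm/615 nm emission ratio after 4 h to overnight incubation. Mixture: Sf9 lysate with His-tagged LBD (~10 nM final, not purified), SRC1-2 LXXLL biotin peptide at 450 nM, 2 nM europium anti-His antibody, 60 nM APC-streptavidin; buffer 25 mM HEPES pH 7.0, 100 mM NaCl, 0.01% Tween, 0.1% BSA.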
On the technique in general: Time-resolved FRET reads energy transfer from a long-lived donor to a nearby acceptor.

As a reminder, the IC50 is the concentration that gives 50% inhibition. Read a low IC50 as greater potency. With `CC1(C)CN(S(=O)(=O)c2ccc(F)cc2)c2cc(NC(=O)c3c(F)cccc3Cl)ccc2O1` [Compound 16, 2-Chloro-6-fluoro-N-(4-((4-fluorophenyl)sulfonyl)-2,2-dimethyl-3,4-dihydro-2H-benzo[b][1,4]oxazin-6-yl)benzamide], the IC50 in test [1] and in test [2] was less than 15 µM throughout.
On to `CC1(C)CN(S(=O)(=O)c2ccc(F)cc2)c2cc(NC(=O)c3c(Cl)cccc3Cl)ccc2O1` [VI-125], for which the IC50 in test [1] and in test [2] was less than 15 µM throughout.
Consider `O=C(Nc1ccc2c(c1)N(S(=O)(=O)c1ccc(F)c(F)c1)C[C@@H](CO)O2)c1c(F)cccc1Cl` [VI-75], for which the IC50 in test [1] and in test [2] was less than 15 µM in each case.
Consider `COc1ccc(S(=O)(=O)N2C[C@H](CO)Oc3ccc(NC(=O)c4c(F)cccc4Cl)cc32)cn1` [VI-28], for which the concentration for half-maximal inhibition (IC50) in test [1] and in test [2] was less than 15 µM each time.
Turning to `CC(C)OCC1CN(S(=O)(=O)c2ccc(F)cc2)c2cc(NC(=O)c3c(Cl)cccc3Cl)ccc2O1` (centres unmarked) [VI-109], the IC50 in test [1] and in test [2] was less than 15 µM in each case.
Consider `O=C(Nc1ccc2c(c1)N(S(=O)(=O)c1ccc(F)c(F)c1)C[C@@H](CO)O2)c1c(F)cccc1C(F)(F)F` [VI-72], for which the IC50 in test [1] and in test [2] was less than 15 µM throughout.
In the case of `CC(C)(C)CNCC1CN(S(=O)(=O)c2ccc(F)cc2)c2cc(NC(=O)c3c(F)cccc3Cl)ccc2O1` (centres unmarked) [VI-36], the IC50 in test [1] and in test [2] was less than 15 µM each time.
`COc1ccc(S(=O)(=O)N2C[C@H](CO)Oc3cc(F)c(NC(=O)c4c(F)cccc4Cl)cc32)cn1` [VI-46]: the IC50 in test [1] and in test [2] was less than 15 µM each time.
Regarding `COCC1CN(S(=O)(=O)c2ccc(F)c(F)c2)c2cc(NC(=O)c3c(F)cccc3C(F)(F)F)ccc2O1` (centres unmarked) [VI-79], the IC50 in test [1] and in test [2] was less than 15 µM in each case.
As to `O=C(Nc1ccc2c(c1)N(S(=O)(=O)c1ccc(F)cc1)C[C@@H](CO)O2)c1c(Cl)cccc1Cl` [VI-106], the IC50 in test [1] and in test [2] was less than 15 µM throughout.
Consider `Cc1cccc(Cl)c1C(=O)Nc1ccc2c(c1)N(S(=O)(=O)c1ccc(F)cc1)C[C@H](CO)O2` [VI-48], for which the IC50 in test [1] and in test [2] was less than 15 µM throughout.
Turning to `O=C(Nc1ccc2c(c1)N(S(=O)(=O)c1ccc(F)cc1)C[C@H](CO)O2)c1c(F)cccc1F` [VI-114], the IC50 in test [1] and in test [2] was less than 15 µM each time.
Take `Cc1nn(C(F)F)cc1S(=O)(=O)N1C[C@H](CO)Oc2ccc(NC(=O)c3c(F)cccc3Cl)cc21` [VI-30]: the IC50 in test [1] and in test [2] was less than 15 µM each time.
Consider `CC(C)OCC1CN(S(=O)(=O)c2ccc(F)cc2)c2cc(NC(=O)c3c(F)cccc3F)ccc2O1` (centres unmarked) [VI-115], for which the IC50 in test [1] and in test [2] was less than 15 µM in each case.
For the compound `O=C(Nc1ccc2c(c1)N(S(=O)(=O)c1ccc(F)cc1)C[C@H](CO)O2)c1c(F)cccc1C(F)(F)F` [VI-82], the IC50 in test [1] and in test [2] was less than 15 µM each time.
For `COc1ccc(S(=O)(=O)N2C[C@H](CO)Oc3ccc(NC(=O)c4c(C)cccc4Cl)cc32)cn1` [VI-27], the IC50 in test [1] and in test [2] was less than 15 µM throughout.
As to `O=C(Nc1ccc2c(c1)N(S(=O)(=O)c1ccc(F)c(F)c1)C[C@@H](CO)O2)c1c(Cl)cccc1Cl` [VI-73], the IC50 in test [1] and in test [2] was less than 15 µM each time.
Turning to `CCOCC1CN(S(=O)(=O)c2cccc(C#N)c2)c2cc(NC(=O)c3c(F)cccc3Cl)ccc2O1` (centres unmarked) [VI-100], the half-maximal inhibitory concentration (IC50) in test [1] and in test [2] was less than 15 µM each time.
Take `Cc1cccc(C)c1C(=O)Nc1ccc2c(c1)N(S(=O)(=O)c1ccc(F)cc1)C[C@H](CO)O2` [VI-49]: the IC50 in test [1] and in test [2] was less than 15 µM in each case.
As for `Cc1cccc(F)c1C(=O)Nc1ccc2c(c1)N(S(=O)(=O)c1ccc(F)cc1)C[C@H](CO)O2` [VI-44], the IC50 in test [1] and in test [2] was less than 15 µM each time.
With `CCOCC1CN(S(=O)(=O)c2cccc(C#N)c2)c2cc(NC(=O)c3c(F)cccc3F)ccc2O1` (centres unmarked) [VI-102], the IC50 in test [1] and in test [2] was less than 15 µM each time.
With `O=C(Nc1ccc2c(c1)N(S(=O)(=O)c1ccc(F)cc1)CC(CC(F)(F)F)O2)c1c(Cl)cccc1C(F)(F)F` (centres unmarked) [VI-15], the IC50 in test [1] and in test [2] was less than 15 µM throughout.
`N#Cc1cccc(S(=O)(=O)N2C[C@H](CO)Oc3ccc(NC(=O)c4c(F)cccc4Cl)cc32)c1` [Compound 20, (R)-2-Chloro-N-(4-((3-cyanophenyl)sulfonyl)-2-(hydroxymethyl)-3,4-dihydro-2H-benzo[b][1,4]oxazin-6-yl)-6-fluorobenzamide]: the IC50 in test [1] and in test [2] was less than 15 µM in each case.
Consider `Cc1nn(C(F)F)cc1S(=O)(=O)N1C[C@H](C)Oc2ccc(NC(=O)c3c(F)cccc3C(F)(F)F)cc21` [VI-10], for which the IC50 in test [1] and in test [2] was less than 15 µM each time.
Take `COCC1CN(S(=O)(=O)c2ccc(Cl)cc2)c2cc(NC(=O)c3c(Cl)cccc3C(F)(F)F)ccc2O1` (centres unmarked) [VI-91]: the IC50 in test [1] and in test [2] was less than 15 µM each time.
For the compound `O=C(Nc1ccc2c(c1)N(S(=O)(=O)c1ccc(F)cc1)C[C@H](CF)O2)c1c(F)cccc1Cl` [Compound 22, (R)-2-Chloro-6-fluoro-N-(2-(fluoromethyl)-4-((4-fluorophenyl)sulfonyl)-3,4-dihydro-2H-benzo[b][1,4]oxazin-6-yl)benzamide], the IC50 in test [1] and in test [2] was less than 15 µM in each case.
On to `CC1(C)CN(S(=O)(=O)c2ccc(F)cc2)c2cc(NC(=O)c3c(F)cccc3C(F)(F)F)ccc2O1` [VI-124], for which the IC50 in test [1] and in test [2] was less than 15 µM in each case.
`COc1ccc(S(=O)(=O)N2C[C@H](CO)Oc3ccc(NC(=O)c4c(Cl)cccc4Cl)cc32)cn1` [VI-26]: the IC50 in test [1] and in test [2] was less than 15 µM each time.
